{"source": "patent US20130078224A1", "about": "“INDUCTION/MONITORING OF ARTERIOGENESIS USING SDF1 AND PDGFB OR INHIBITION OF PHD2” (LIFE SCIENCES RESEARCH PARTNERS VZW, priority 2010, published 2013)", "key": {"PDGFB, SDF1, and Tie2": {"system": "PDGFB, SDF1, and Tie2", "assay": "Gene expression (qRT-PCR) in PHD2Rosa26CreERT;lox/wt peritoneal macrophages after 4-OHT", "type": "cell-based, mice", "settings": "2 μM, 48 hours", "method": "Macrophage Preparation: To harvest peritoneal macrophages (pMØ), the peritoneal cavity was washed with 5 ml of RPMI 10% FBS. The pooled cells were then seeded in RPMI 10% FBS in six-well plates (2×10^6 cells/well), twelve-well plates (1×10^6 cells/well), or 24-well plates (5×10^5 cells/well). After six hours of incubation at 37° C. in a moist atmosphere of 5% CO2 and 95% air, non-adhering cells on each plate were removed by rinsing with phosphate-buffered saline (PBS). The attached macrophages were cultured in different mediums for 12 hours or 48 hours, depending on the experiments performed, as described below. When high amounts of cells were needed (analysis for HIF accumulation and NF-κB activity), macrophages were derived from bone marrow precursors as described before (Meerpohl et al., Eur. J. Immuno. 6:213-7, 1976). Briefly, bone marrow cells (2×10^6 cells/ml) were cultured in a volume of 5 ml in a 10 cm Petri dish (non-tissue culture-treated, bacterial grade) for ten days in DMEM supplemented with 20% FBS and 30% L929 conditioned medium as a source of M-CSF. The cells obtained in those cultures are uniformly macrophages. […]\nQuantitative PCR Analysis: In order to investigate gene expression in pMØ, quantitative RT-PCR (qRT-PCR) was performed. […] Quantitative RT-PCR was perfouned with commercially available or homemade primers and probes for the studied genes. […]"}, "F4/80+Tie2+ cells": {"system": "F4/80+Tie2+ cells", "assay": "Deletion of TEMs by GCV in Tie2:tk-BMT mice (F4/80 and Tie2 double staining of adductor)", "type": "in vivo", "settings": "GCV 50 mg/kg daily"}, "[1]": {"system": "secondary and tertiary collateral arteries", "assay": "Collateralization and ischemic necrosis in Tie2:tk-BMT mice after GCV", "type": "in vivo", "settings": "PHD2+/- Tie2:tk-BMT mice"}, "[2]": {"system": "hCASMC (Human coronary artery smooth muscle cells)", "assay": "SMC migration (Transwell) toward PHD2+/- macrophages", "type": "cell-based", "settings": "AMD3100 1 μg/ml, imatinib 2.5 μg/ml, alone or combined", "method": "(§1) Cell Migration and Viability Assays: Migration and proliferation of SMCs and ECs were assessed by using 8 μm-pore Transwell peimeable plate for migration assays and 0.4 μm-pore Transwell permeable plate for proliferation assays (Corning Life Science). To determine cell migration toward the factors secreted by pMØ, pMØ were cultured in the lower chamber for twelve hours in RPMI 1% FBS or in M-199 1% FBS (migration assay), or 48 hours in DMEM-F12 1% FBS or in M-199 1% FBS (proliferation assay). For migration assays, hCASMC (Human coronary artery smooth muscle cells; from Lonza) and HUVEC (Human umbilical vein endothelial cells; from Lonza) were starved for twelve hours in their own medium at 1% FBS and, therefore, seeded in the upper chamber (5×10^3 cells in 200 μl of medium 1% FBS), with or without AMD3100 (1 μg/ml, Sigma-Aldrich, Dorset, U.K) and imatinib (2.5 μg/ml, Novartis). SMCs and HUVECs were incubated for two days or 24 hours, respectively, and migrated cells were fixed with 4% PFA, stained with 0.25% crystal violet/50% methanol and counted under the microscope. VEGF (100 ng/mL, R&D), PDGFB (100 ng/mL, R&D) or SDF 1 (100 ng/mL, R&D) were used as positive controls. […] The cell proliferative ability was then analyzed using WST-1 Cell Proliferation Assay (Roche Applied Biosciences) according to the manufacturer instructions after 24 hours of coculture with the pMØ. […]"}, "[3]": {"system": "RAOSMC (Rat Aortic Smooth Muscle Cells)", "assay": "SMC growth assay (WST-1) in coculture with PHD2+/- macrophages", "type": "cell-based", "settings": "AMD3100, imatinib, alone or combined", "method": "as §1"}, "[4]": {"system": "secondary and tertiary collateral arterioles", "assay": "Collateral vessel formation in bone marrow transplanted mice treated with AMD3100/imatinib (gelatin bismuth angiography)", "type": "in vivo", "method": "Mouse Model of Hindlimb Ischemia: To induce hind limb ischemia, unilateral or bilateral ligations of the femoral artery and vein (proximal to the popliteal artery) and the cutaneous vessels branching from the caudal femoral artery side branch were performed without damaging the nervus femoralis (Luttun et al., Nat. Med. 8:831-840, 2002). By using this procedure, collateral flow to adductor muscles is preserved via arterioles branching from the femoral artery, therefore, 50% up to 60% of perfusion is preserved by this method. Two superficial preexisting collateral arterioles connecting the femoral and saphenous arteries were used for analysis. Functional perfusion measurements of the collateral region were performed using a Lisca PIM II camera (Gambro). Gelatin bismuth-based angiography was perfottned as described (Carmeliet et al., Nat. Med. 7:575-583, 2001) and analyzed by photoangiographs (Nikon D1 digital camera). Collateral side branches were categorized as follows: second-generation collateral arterioles directly branched off from the main collateral, whereas third-generation collateral arterioles were orientated perpendicularly to the second-generation branches. The number of secondary and tertiary collateral arterioles was counted. After perfusion-fixation, the muscle tissue between the two superficial collateral arterioles (adductor) was post-fixed in 2% paraformaldehyde (PFA) and paraffin-embedded, and were morphometrically analyzed. An endurance treadmill-running test was perfatmed at 12, 24, 48, and 72 hours after bilateral femoral artery ligation.\nBone Marrow (BM) Transplantation and Hematological Analysis: Balb/c WT and PHD2^+/− recipient mice were irradiated with 7.5 Gy. Subsequently, 5×10^6 bone marrow cells from green fluorescent protein^+ (GFP^+) WT or GFP^+ PHD2^+/− mice were injected intravenously via the tail vein. After one week, saline or AMD3100 (5 mg/kg) was administered intravenously and saline or imatinib ([…]) was administered by oral gavage for four weeks. Femoral artery ligation, treadmill running test and bismuth angiography were performed at six weeks after bone marrow reconstitution. Red and white blood cell count was determined using a hemocytometer on peripheral blood collected in heparin with capillary pipettes by retro-orbital bleeding. To assess the effect of acute deletion of macrophage-borne PHD2 on arteriogenesis, PHD2^Rosa26CreERT;lox/wt bone marrows were transplanted into lethally irradiated WT recipient mice. After five weeks, transplanted mice were injected i.p. with tamoxifen (1 mg/mouse; Sigma) or vehicle for five days. TEM quantification and femoral artery ligation were performed ten days after tamoxifen treatment as explained above. The bone marrow of PHD2^WT;Tie2:GFP or PHD2^HE;Tie2:GFP mice was transplanted in lethally irradiated WT mice. After five weeks, mice were injected systemically (5×10^11 vp) and locally (5×10^9 vp in two points of the adductor) with an AAV9 encoding the mouse extracellular domain of Tie2 fused to a flag tag (AAV9:sTie2). AAV9 encoding the human serum albumin was used as control. One week after injection of the viral vector, mice were subjected to femoral artery ligation. Blood and adductor samples were harvested at baseline and 72 hours post-ischemia and used to sort CD115^+GFP^+ circulating monocytes and F4/80^+GFP^+ macrophages."}, "PHD2": {"system": "PHD2", "assay": "PHD2 expression (qPCR) in bone marrow-derived monocyte/macrophage cultures upon cytokine stimulation", "type": "cell-based, mice", "method": "Quantitative PCR Analysis: In order to investigate gene expression in pMØ, quantitative RT-PCR (qRT-PCR) was performed. After preparing pMØ, the cells were cultured in normoxic condition for twelve hours, and the RNA was extracted. To analyze the gene profile of adductor, gastrocnemius, and soleus muscle, tissues were collected at baseline or 24 hours/72 hours post-ischemia and RNA was extracted. Macrophages and ECs were freshly sorted from dissected adductors as described below and RNA was extracted. Quantitative RT-PCR was perfouned with commercially available or homemade primers and probes for the studied genes. The assay ID (Applied Biosystems, Foster City, Calif.) or the sequence of primers and probes (when homemade) are listed in Table 5. RNA levels of Tie-2, SDF1 and PDGFB after inhibition of NF-κB pathway were measured by qRT-PCR on pMØ exposed for twelve hours to 500 nM 6-amino-4-(4-phenoxyphenylethylamino)quinazoline. […] After 24 hours, cells were harvested for RNA extraction and cDNA preparation."}, "Tie2, PDGFB and SDF1": {"system": "Tie2, PDGFB and SDF1", "assay": "Expression of PDGFB, SDF1 and Tie2 (qPCR) in monocytes/macrophages upon angiopoietin-1", "type": "cell-based, mice", "settings": "monocytes/macrophages after angiopoietin-1 stimulation (50 and 250 ng/ml)", "method": "Quantitative PCR Analysis: In order to investigate gene expression in pMØ, quantitative RT-PCR (qRT-PCR) was performed. After preparing pMØ, the cells were cultured in normoxic condition for twelve hours, and the RNA was extracted. To analyze the gene profile of adductor, gastrocnemius, and soleus muscle, tissues were collected at baseline or 24 hours/72 hours post-ischemia and RNA was extracted. Macrophages and ECs were freshly sorted from dissected adductors as described below and RNA was extracted. Quantitative RT-PCR was perfouned with commercially available or homemade primers and probes for the studied genes. The assay ID (Applied Biosystems, Foster City, Calif.) or the sequence of primers and probes (when homemade) are listed in Table 5. RNA levels of Tie-2, SDF1 and PDGFB after inhibition of NF-κB pathway were measured by qRT-PCR on pMØ exposed for twelve hours to 500 nM 6-amino-4-(4-phenoxyphenylethylamino)quinazoline. To evaluate PHD2 levels on monocyte/macrophage cultures, 2.5×10^5 bone marrow-derived monocytes/macrophages (see above) were seeded in a 24-well plate in DMEM 10% FBS and stimulated with 50 ng/ml angiopoietin-1 (Peprotech) or 50 ng/ml angiopoietin-2 (Prospec). After 24 hours, cells were harvested for RNA extraction and cDNA preparation."}, "[5]": {"settings": "HE→WT mice, daily AMD3100 5 mg/kg or imatinib 50 mg/kg alone"}}}
{"molecule": "4-hydroxytamoxifen", "values": [{"measurement": "expression of PDGFB, SDF1, and Tie2", "setting": "PDGFB, SDF1, and Tie2", "value": "increased expression"}]}
{"molecule": "Nc1nc(O)c2ncn(COC(CO)CO)c2n1", "note": "[GCV, ganciclovir]", "values": [{"measurement": "reduction of density of F4/80+Tie2+ cells", "setting": "F4/80+Tie2+ cells; PHD2+/- Tie2:tk-BMT mice, 72 hours post-ischemia", "value": "68±5", "unit": "%"}, {"measurement": "reduction of density of F4/80+Tie2+ cells", "setting": "F4/80+Tie2+ cells; PHD2+/- Tie2:tk-BMT mice, baseline", "value": "58±11", "unit": "%"}, {"measurement": "reduction of density of F4/80+Tie2+ cells", "setting": "F4/80+Tie2+ cells; WT Tie2:tk-BMT mice, 72 hours post-ischemia", "value": "39±6", "unit": "%"}, {"measurement": "reduction of density of F4/80+Tie2+ cells", "setting": "F4/80+Tie2+ cells; WT Tie2:tk-BMT mice, baseline", "value": "46±10", "unit": "%"}, {"measurement": "ischemic protection (fiber necrosis)", "setting": "[1]; 72 hours after ligation", "value": "abolished ischemic protection"}, {"measurement": "formation of secondary and tertiary collateral arteries", "setting": "[1]; baseline, vs untreated group", "value": "completely prevented"}]}
{"molecule": "Cc1ccc(NC(=O)c2ccc(CN3CCN(C)CC3)cc2)cc1Nc1nccc(-c2cccnc2)n1", "note": "[imatinib]", "values": [{"measurement": "migration of SMCs toward PHD2+/- macrophages", "setting": "[2]", "value": "not effective"}, {"measurement": "increased SMC growth by PHD2+/- macrophages", "setting": "[3]", "value": "abrogated"}, {"measurement": "increased formation of second generation collateral branches", "setting": "[4]; [5]", "value": "only partially prevented"}, {"measurement": "third generation collaterals", "setting": "[4]; [5]", "value": "affected"}, {"measurement": "number of collateral branch arteries", "setting": "[4]; WT→WT mice, alone or in combination", "value": "not affected"}]}
{"molecule": "angiopoietin-1: Tie2 ligand cytokine (Peprotech) (protein, UniProt Q15389 16-498, looked up) Angiopoietin-1: HIGCSNQRRSPENSGRRYNRIQHGQCAYTFILPEHDGNCRESTTDQYNTNALQRDAPHVEPDFSSQKLQHLEHVMENYTQWLQKLENYIVENMKSEMAQIQQNAVQNHTATMLEIGTSLLSQTAEQTRKLTDVETQVLNQTSRLEIQLLENSLSTYKLEKQLLQQTNEILKIHEKNSLLEHKILEMEGKHKEELDTLKEEKENLQGLVTRQTYIIQELEKQLNRATTNNSVLQKQQLELMDTVHNLVNLCTKEGVLLKGGKREEEKPFRDCADVYQAGFNKSGIYTIYINNMPEPKKVFCNMDVNGGGWTVIQHREDGSLDFQRGWKEYKMGFGNPSGEYWLGNEFIFAITSQRQYMLRIELMDWEGNRAYSQYDRFHIGNEKQNYRLYLKGHTGTAGKQSSLILHGADFSTKDADNDNCMCKCALMLTGGWWFDACGPSNLNGMFYTAGQNHGKLNGIKWHYFKGPSYSLRSTTMMIRPLDF", "values": [{"measurement": "PHD2 levels down-regulated, dose-dependent, up to", "setting": "PHD2; WT monocytes/macrophages", "value": "50 % of the basal levels"}, {"measurement": "PHD2 down-modulation in monocytes/macrophages", "setting": "PHD2; after angiopoietin-1 stimulation", "value": 40, "unit": "%"}, {"measurement": "expression of Tie2, PDGFB and SDF1", "setting": "Tie2, PDGFB and SDF1", "value": "increased expression"}]}
